# Test results taken from patent publication US10165777B2, “Substituted pyrazolylpyrazole derivative and use of same as herbicide” (KYOYU AGRI CO., LTD., priority 2015, dated 2019).
# How the values were obtained:
# Assay type in all cases: in vivo
# Echinochloa crus-galli = experiment: Paddy herbicidal activity test; details: irrigated pot, treated at 3.5 leaf stage of Echinochloa crus-galli, 30 days
# Description: (§1) 1. Paddy Herbicidal Activity Test Rice paddy soil was filled into a 1/10000 are pot followed by the addition of suitable amounts of water and chemical fertilizer, kneading, seeding with Echinochloa crus-galli, Monochoria vaginalis and Scirpus juncoides and maintaining in an irrigated state at a water depth of 3 cm. Wettable powders of Target Compound (I) shown in Table 1 prepared in compliance with the preparation examples were diluted with a suitable amount of water, rice plants in the 2.0 leaf stage were transplanted during 3.5 leaf stage of Echinochloa crus-galli, and treated by dropping in chemical in the prescribed amount per 10 are using a pipette. After treating for 30 days in a glass greenhouse at an average atmospheric temperature of 30° C., the herbicidal efficacy thereof was investigated. Evaluation of herbicidal efficacy was carried out by comparing growth inhibition rate (%) with an untreated group, while evaluation of phytotoxicity was carried out by comparing growth inhibition rate (%) with the state of a complete eradication group, and were evaluated at 11 levels indicated below.
# Monochoria vaginalis = experiment: Paddy herbicidal activity test; details: irrigated pot, 30 days
# Description: as §1
# Scirpus juncoides = experiment: Paddy herbicidal activity test; details: irrigated pot, 30 days
# Description: as §1
# Oryza sativa = experiment: Paddy herbicidal activity test, phytotoxicity to transplanted rice; details: rice transplanted in 2.0 leaf stage, 30 days
# Description: as §1
# Amaranthus retroflexus [1] = experiment: Farming soil treatment test; details: soil surface spray prior to weed growth, 30 days
# Description: (§2) Field soil was filled into a 1/6000 are pot followed by seeding with Digitaria ciliaris, Chenopodium album and Amaranthus retroflexus and covering with soil. Wettable powders of compounds of formula (I) shown in Table 1 prepared in compliance with the preparation examples were diluted with water to the prescribed amount of chemical and uniformly sprayed onto each soil surface layer using 100 liters of sprayed water per 10 are prior to weed growth following seeding. After treating for 30 days in a glass greenhouse at an average atmospheric temperature of 30° C., the herbicidal efficacy thereof was investigated. Evaluation of herbicidal efficacy was carried out in the same manner as the above-mentioned Test Example 1.
# Chenopodium album [2] = experiment: Farming soil treatment test; details: soil surface spray prior to weed growth, 30 days
# Description: as §2
# Digitaria ciliaris [3] = experiment: Farming soil treatment test; details: soil surface spray prior to weed growth, 30 days
# Description: as §2
# Amaranthus retroflexus [4] = experiment: Weed foliar treatment test (Test 3, 1.0 to 2.0 leaf stage); details: foliar spray at 1.0 to 2.0 leaf stage of Digitaria ciliaris, 3 weeks
# Description: (§3) Soil was filled into a 1/6000 are pot followed by seeding with Digitaria ciliaris, Chenopodium album and Amaranthus retroflexus, covering with soil, and cultivating in a glass greenhouse at an average atmospheric temperature of 25° C. Wettable powders of Target Compound (I) shown in Table 1 prepared in compliance with the preparation examples were diluted with water to the prescribed amount of chemical and uniformly sprayed onto the weeds using 150 liters of sprayed water per 10 are when Digitaria ciliaris had grown to the 1.0 to 2.0 leaf stage. After treating for 3 weeks in a glass greenhouse at an average atmospheric temperature of 25° C., the herbicidal efficacy thereof was investigated. Evaluation of herbicidal efficacy was carried out in the same manner as the above-mentioned Test Example 1.
# Chenopodium album [5] = experiment: as above; details: foliar spray at 1.0 to 2.0 leaf stage of Digitaria ciliaris, 3 weeks
# Description: as §3
# Digitaria ciliaris [6] = experiment: as above; details: foliar spray at 1.0 to 2.0 leaf stage of Digitaria ciliaris, 3 weeks
# Description: as §3
# Digitaria ciliaris [7] = experiment: Weed foliar treatment test (Test 4, 4.0 to 5.0 leaf stage); details: 10 g a.i./10 a; foliar spray at 4.0 to 5.0 leaf stage of Digitaria ciliaris (plant height 10 cm to 15 cm); 20 days
# Description: (§4) Field soil was filled into a 1/4500 are pot followed by seeding with Digitaria ciliaris and Galinsoga parviflora, covering with soil and cultivating in a glass greenhouse at an average atmospheric temperature of 25° C.
# (§5) Wettable powders of Target Compound (I) shown in Table 1 prepared in compliance with the preparation examples were diluted with water to the prescribed amount of chemical and uniformly sprayed onto the weeds using 100 liters of sprayed water per 10 are when Digitaria ciliaris had grown to the 4.0 to 5.0 leaf stage (plant height: 10 cm to 15 cm).
# (§6) After treating for 20 days in a glass greenhouse at an average atmospheric temperature of 25° C., the herbicidal efficacy thereof was investigated.
# (§7) Evaluation of herbicidal efficacy was carried out in the same manner as the above-mentioned Test Example 1.
# Galinsoga parviflora = experiment: as above; details: 10 g a.i./10 a; foliar spray at 4.0 to 5.0 leaf stage of Digitaria ciliaris; 20 days
# Description: as §4, §5, §6, §7
smiles,measurement,setting,value
"N#Cc1cnn(-c2nn3c(c2Cl)CCCC3)c1N=CC1CCCCC1 [Compound 1, 1-(3-chloro-4,5,6,7-tetrahydropyrazolo[1,5-a]pyridin-2-yl)-5-(cyclohexylmethyleneamino)pyrazole-4-carbonitrile]","herbicidal efficacy, Echinochloa crus-galli",Echinochloa crus-galli; 1 g a.i./10 a,10 (100%)
same,"herbicidal efficacy, Echinochloa crus-galli",Echinochloa crus-galli; 5 g a.i./10 a,10 (100%)
same,"herbicidal efficacy, Monochoria vaginalis",Monochoria vaginalis; 1 g a.i./10 a,9 (90% to less than 100%)
same,"herbicidal efficacy, Monochoria vaginalis",Monochoria vaginalis; 5 g a.i./10 a,10 (100%)
same,"herbicidal efficacy, Scirpus juncoides",Scirpus juncoides; 1 g a.i./10 a,9 (90% to less than 100%)
same,"herbicidal efficacy, Scirpus juncoides",Scirpus juncoides; 5 g a.i./10 a,10 (100%)
same,"phytotoxicity, Oryza sativa",Oryza sativa; 1 g a.i./10 a,0 (0% to less than 10% (growth inhibition rate))
same,"phytotoxicity, Oryza sativa",Oryza sativa; 5 g a.i./10 a,0 (0% to less than 10% (growth inhibition rate))
same,"herbicidal efficacy, Amaranthus retroflexus",Amaranthus retroflexus [1]; 5 g a.i./10 a,10 (100%)
same,"herbicidal efficacy, Amaranthus retroflexus",Amaranthus retroflexus [1]; 10 g a.i./10 a,10 (100%)
same,"herbicidal efficacy, Chenopodium album",Chenopodium album [2]; 5 g a.i./10 a,9 (90% to less than 100%)
same,"herbicidal efficacy, Chenopodium album",Chenopodium album [2]; 10 g a.i./10 a,10 (100%)
same,"herbicidal efficacy, Digitaria ciliaris",Digitaria ciliaris [3]; 5 g a.i./10 a,9 (90% to less than 100%)
same,"herbicidal efficacy, Digitaria ciliaris",Digitaria ciliaris [3]; 10 g a.i./10 a,9 (90% to less than 100%)
same,"herbicidal efficacy, Amaranthus retroflexus",Amaranthus retroflexus [4]; 5 g a.i./10 a,10 (100%)
same,"herbicidal efficacy, Amaranthus retroflexus",Amaranthus retroflexus [4]; 10 g a.i./10 a,10 (100%)
same,"herbicidal efficacy, Chenopodium album",Chenopodium album [5]; 5 g a.i./10 a,10 (100%)
same,"herbicidal efficacy, Chenopodium album",Chenopodium album [5]; 10 g a.i./10 a,10 (100%)
same,"herbicidal efficacy, Digitaria ciliaris",Digitaria ciliaris [6]; 5 g a.i./10 a,10 (100%)
same,"herbicidal efficacy, Digitaria ciliaris",Digitaria ciliaris [6]; 10 g a.i./10 a,10 (100%)
N#Cc1cnn(-c2nn3c(c2Cl)CCCC3)c1N=C1CCCC1 [Compound 8],"herbicidal efficacy, Digitaria ciliaris",Digitaria ciliaris [7],10 (100%)
same,"herbicidal efficacy, Galinsoga parviflora",Galinsoga parviflora,10 (100%)
N#Cc1cnn(-c2nn3c(c2Cl)CCCC3)c1N=Cc1ccccc1OC(F)F [Compound 12],"herbicidal efficacy, Digitaria ciliaris",Digitaria ciliaris [7],10 (100%)
same,"herbicidal efficacy, Galinsoga parviflora",Galinsoga parviflora,10 (100%)
N#Cc1cnn(-c2nn3c(c2Cl)CCCC3)c1N=Cc1ccccc1F [Compound 13],"herbicidal efficacy, Digitaria ciliaris",Digitaria ciliaris [7],10 (100%)
same,"herbicidal efficacy, Galinsoga parviflora",Galinsoga parviflora,10 (100%)
N#Cc1cnn(-c2nn3c(c2Cl)CCCC3)c1N=Cc1cccc(Cl)c1 [Compound 17],"herbicidal efficacy, Digitaria ciliaris",Digitaria ciliaris [7],10 (100%)
same,"herbicidal efficacy, Galinsoga parviflora",Galinsoga parviflora,10 (100%)
Cc1ccc(C=Nc2c(C#N)cnn2-c2nn3c(c2Cl)CCCC3)cc1 [Compound 18],"herbicidal efficacy, Digitaria ciliaris",Digitaria ciliaris [7],10 (100%)
same,"herbicidal efficacy, Galinsoga parviflora",Galinsoga parviflora,10 (100%)
N#Cc1cnn(-c2nn3c(c2Cl)CCCC3)c1N=Cc1ccc(C(F)(F)F)cc1 [Compound 19],"herbicidal efficacy, Digitaria ciliaris",Digitaria ciliaris [7],10 (100%)
same,"herbicidal efficacy, Galinsoga parviflora",Galinsoga parviflora,10 (100%)
N#Cc1cnn(-c2nn3c(c2Cl)CCCC3)c1N=Cc1ccc(Cl)cc1 [Compound 20],"herbicidal efficacy, Digitaria ciliaris",Digitaria ciliaris [7],10 (100%)
same,"herbicidal efficacy, Galinsoga parviflora",Galinsoga parviflora,10 (100%)
N#Cc1cnn(-c2nn3c(c2Cl)CCCC3)c1N=Cc1ccccn1 [Compound 21],"herbicidal efficacy, Digitaria ciliaris",Digitaria ciliaris [7],10 (100%)
same,"herbicidal efficacy, Galinsoga parviflora",Galinsoga parviflora,10 (100%)
N#Cc1cnn(-c2nn3c(c2Cl)CCCC3)c1N=Cc1cccnc1 [Compound 22],"herbicidal efficacy, Echinochloa crus-galli",Echinochloa crus-galli; 1 g a.i./10 a,10 (100%)
same,"herbicidal efficacy, Echinochloa crus-galli",Echinochloa crus-galli; 5 g a.i./10 a,10 (100%)
same,"herbicidal efficacy, Monochoria vaginalis",Monochoria vaginalis; 1 g a.i./10 a,10 (100%)
same,"herbicidal efficacy, Monochoria vaginalis",Monochoria vaginalis; 5 g a.i./10 a,10 (100%)
same,"herbicidal efficacy, Scirpus juncoides",Scirpus juncoides; 1 g a.i./10 a,10 (100%)
same,"herbicidal efficacy, Scirpus juncoides",Scirpus juncoides; 5 g a.i./10 a,10 (100%)
same,"phytotoxicity, Oryza sativa",Oryza sativa; 1 g a.i./10 a,0 (0% to less than 10% (growth inhibition rate))
same,"phytotoxicity, Oryza sativa",Oryza sativa; 5 g a.i./10 a,1 (10% to less than 20%)
same,"herbicidal efficacy, Amaranthus retroflexus",Amaranthus retroflexus [1]; 5 g a.i./10 a,10 (100%)
same,"herbicidal efficacy, Amaranthus retroflexus",Amaranthus retroflexus [1]; 10 g a.i./10 a,10 (100%)
same,"herbicidal efficacy, Chenopodium album",Chenopodium album [2]; 5 g a.i./10 a,9 (90% to less than 100%)
same,"herbicidal efficacy, Chenopodium album",Chenopodium album [2]; 10 g a.i./10 a,10 (100%)
same,"herbicidal efficacy, Digitaria ciliaris",Digitaria ciliaris [3]; 5 g a.i./10 a,9 (90% to less than 100%)
same,"herbicidal efficacy, Digitaria ciliaris",Digitaria ciliaris [3]; 10 g a.i./10 a,9 (90% to less than 100%)
same,"herbicidal efficacy, Digitaria ciliaris",Digitaria ciliaris [7],9 (90% to less than 100%)
same,"herbicidal efficacy, Galinsoga parviflora",Galinsoga parviflora,10 (100%)
CC(=Nc1c(C#N)cnn1-c1nn2c(c1Cl)CCCC2)c1ccccn1 [Compound 24],"herbicidal efficacy, Digitaria ciliaris",Digitaria ciliaris [7],10 (100%)
same,"herbicidal efficacy, Galinsoga parviflora",Galinsoga parviflora,10 (100%)
CC(=Nc1c(C#N)cnn1-c1nn2c(c1Cl)CCCC2)c1cccnc1 [Compound 25],"herbicidal efficacy, Digitaria ciliaris",Digitaria ciliaris [7],10 (100%)
same,"herbicidal efficacy, Galinsoga parviflora",Galinsoga parviflora,10 (100%)
CC(=Nc1c(C#N)cnn1-c1nn2c(c1Cl)CCCC2)c1cnccn1 [Compound 27],"herbicidal efficacy, Digitaria ciliaris",Digitaria ciliaris [7],10 (100%)
same,"herbicidal efficacy, Galinsoga parviflora",Galinsoga parviflora,10 (100%)
N#Cc1cnn(-c2nn3c(c2Cl)CCCC3)c1N=Cc1ccc[nH]1 [Compound 28],"herbicidal efficacy, Digitaria ciliaris",Digitaria ciliaris [7],10 (100%)
same,"herbicidal efficacy, Galinsoga parviflora",Galinsoga parviflora,10 (100%)
CC(=Nc1c(C#N)cnn1-c1nn2c(c1Cl)CCCC2)c1ccc[nH]1 [Compound 29],"herbicidal efficacy, Amaranthus retroflexus",Amaranthus retroflexus [4]; 5 g a.i./10 a,9 (90% to less than 100%)
same,"herbicidal efficacy, Amaranthus retroflexus",Amaranthus retroflexus [4]; 10 g a.i./10 a,10 (100%)
same,"herbicidal efficacy, Chenopodium album",Chenopodium album [5]; 5 g a.i./10 a,10 (100%)
same,"herbicidal efficacy, Chenopodium album",Chenopodium album [5]; 10 g a.i./10 a,10 (100%)
same,"herbicidal efficacy, Digitaria ciliaris",Digitaria ciliaris [6]; 5 g a.i./10 a,9 (90% to less than 100%)
same,"herbicidal efficacy, Digitaria ciliaris",Digitaria ciliaris [6]; 10 g a.i./10 a,10 (100%)
same,"herbicidal efficacy, Digitaria ciliaris",Digitaria ciliaris [7],10 (100%)
same,"herbicidal efficacy, Galinsoga parviflora",Galinsoga parviflora,10 (100%)
N#Cc1cnn(-c2nn3c(c2Cl)CCCC3)c1N=Cc1ccsc1 [Compound 31],"herbicidal efficacy, Digitaria ciliaris",Digitaria ciliaris [7],10 (100%)
same,"herbicidal efficacy, Galinsoga parviflora",Galinsoga parviflora,10 (100%)
N#Cc1cnn(-c2nn3c(c2Cl)CCCC3)c1N=Cc1ccoc1 [Compound 32],"herbicidal efficacy, Digitaria ciliaris",Digitaria ciliaris [7],10 (100%)
same,"herbicidal efficacy, Galinsoga parviflora",Galinsoga parviflora,10 (100%)
CCOC=Nc1c(C#N)cnn1-c1nn2c(c1Cl)CCCC2 [Compound 34],"herbicidal efficacy, Digitaria ciliaris",Digitaria ciliaris [7],9 (90% to less than 100%)
same,"herbicidal efficacy, Galinsoga parviflora",Galinsoga parviflora,10 (100%)
CC(C)OC=Nc1c(C#N)cnn1-c1nn2c(c1Cl)CCCC2 [Compound 36],"herbicidal efficacy, Digitaria ciliaris",Digitaria ciliaris [7],10 (100%)
same,"herbicidal efficacy, Galinsoga parviflora",Galinsoga parviflora,10 (100%)
CCCCOC=Nc1c(C#N)cnn1-c1nn2c(c1Cl)CCCC2 [Compound 37],"herbicidal efficacy, Digitaria ciliaris",Digitaria ciliaris [7],10 (100%)
same,"herbicidal efficacy, Galinsoga parviflora",Galinsoga parviflora,10 (100%)
